Where a name gives a salt, the structure may show the parent alone.
Legend:
Wistar rats [1] = test: Measurement of alcohol intake by limited access paradigm; format: in vivo; settings: data not shown
Description: Measurement method: An impulsive behavior of cravings for drinking alcohol was evaluated as follows by reference to the method of Sinclair et al. (Alcohol 1992; 9:441-44 and Alcohol & Alcoholism 2001; 36:2-10). First, Wistar rats (male) were allowed to freely drink 10% aqueous ethanol solution and tap water for several weeks under isolated rearing. After the ethanol intake of each animal became stable, limited access paradigm allowing ethanol intake only for 1 hr per day was started, and the ethanol intake in 1 hr was measured every day. The ethanol intake was calculated from the results of weight measurement of a water supply bottle filled with 10% aqueous ethanol solution immediately before the start of the limited access paradigm and immediately after the completion of the limited access paradigm. […] The limited access paradigm test was performed during 9:00 AM-4:00 PM. […]
The significance level of the test was set to 5%. […] The difference between an average ethanol intake in the limited access paradigm for 4 days immediately before drug evaluation and an average ethanol intake in the limited access paradigm for 4 days during the drug administration period was calculated for every animal, and analyzed by two-way factorial analysis of variance by using the presence or absence of brexpiprazole and the presence or absence of nalmefene as factors.

rat = test: Spontaneous locomotor activity under novel environments; format: in vivo; settings: data not shown
Wistar rats [2] = settings: report Alcohol & Alcoholism 2001; 36: 2-10; present dose 0.04 mg/kg; cited from earlier work
[3] = brexpiprazole alone 0.01 mg/kg orally
[4] = nalmefene hydrochloride monohydrate alone 0.04 mg/kg subcutaneously

Structure (SMILES): O=c1ccc2ccc(OCCCCN3CCN(c4cccc5sccc45)CC3)cc2[nH]1 [brexpiprazole, 7-[4-(4-benzo[b]thiophen-4-yl-piperazin-1-yl)butoxy]-1H-quinolin-2-one]
- influence on ethanol intake, drug by itself (Wistar rats [1]; [3]): does not, by itself, influence
- influence on spontaneous locomotor activity under novel environments, drug by itself (rat; [3]): does not, by itself, influence

Structure (SMILES): C=C1CC[C@@]2(O)[C@H]3Cc4ccc(O)c5c4[C@@]2(CCN3CC2CC2)[C@H]1O5 [nalmefene hydrochloride monohydrate]
- influence on ethanol intake, drug by itself (Wistar rats [1]; [4]): does not, by itself, influence
- influence on spontaneous locomotor activity under novel environments, drug by itself (rat; [4]): does not, by itself, influence

Structure (SMILES): C=C1CC[C@@]2(O)[C@H]3Cc4ccc(O)c5c4[C@@]2(CCN3CC2CC2)[C@H]1O5 [nalmefene, 17-(cyclopropylmethyl)-4,5α-epoxy-6-methylenemorphinan-3,14-diol]
- dose at which nalmefene used singly shows effects in this evaluation system, relative to the dose used in the present test (Wistar rats [2]): about 10 times
